The record followed here is patent US20240124503A1, “HETEROAROMATIC PHOSPHONIUM SALTS AND THEIR USE TREATING CANCER” (FLORATEK PHARMA S.A., priority 2021, published 2024).

For assay [1], the system named is BT-474. Kind of assay: Cell viability assay, BT-474. The settings on record: Homo sapiens; breast carcinoma cell line BT-474. In kind it is cell-based. On the procedure: Antitumor activity of the compounds and doxorubicin as a positive control was assessed by using the CellTiter-Blue Cell Viability Assay (Promega, #G8082) or CellTiter-Glow® Luminescent Cell Viability assay (Promega #G7572) according to the manufacturer's instructions. The compounds were tested at 5 or 6 concentrations in half-log increments (highest concentration 30 μM or 100 μM) in duplicate or triplicate well conditions.
Tumor cells were grown at 37° C. in a humidified atmosphere with 5% CO2 in RPMI 1640 or DMEM medium, supplemented with 10% (v/v) fetal calf serum and 50 μg/ml gentamicin for up to 20 passages, and were passaged once or twice weekly. Cells were harvested using TrypLE or PBS buffer containing 1 mM EDTA, and the percentage of viable cells was determined using a CASY Model TI cell counter (OMNI Life Science). Cells were harvested from exponential phase cultures, counted and plated in 96 well flat-bottom microtiter plates at a cell density depending on the cell line's growth rate (4,000-20,000 cells/well depending on the cell line's growth rate, up to 60,000 for hematological cancer cell lines) in RPMI 1640 or DMEM medium supplemented with 10% (v/v) fetal calf serum and 50 μg/ml gentamicin (140 μl/well). […] Viability of cells was quantified by the CellTiter-Blue® cell viability assay (Promega G8081) or CellTiter-Glow® Luminescent Cell Viability assay (Promega #G7572). […]

Assay [2] has as its target T1, ADCK3 (Homo sapiens, UniProt Q8NI60).
T1 construct: purchased Eurofins (KINOMEscan); host or cells: E. coli BL21-derived host (T7 phage) or HEK-293
Kind of assay: KINOMEscan competition binding, ADCK3. The procedure:
Selected compounds were screened for kinase inhibition using the KINOMEscan™ assay (Eurofins) which is based on a competition binding assay that quantitatively measures the ability of a compound to compete with an immobilized, active-site directed ligand. The assay was performed by combining three components: DNA-tagged kinase; immobilized ligand; and the test compound. The ability of the test compound to compete with the immobilized ligand was measured via quantitative PCR of the DNA tag.
Kinase-tagged T7 phage strains were prepared in an E. coli host derived from the BL21 strain. E. coli were grown to log-phase and infected with T7 phage and incubated with shaking at 32° C. until lysis. The lysates were centrifuged and filtered to remove cell debris. The remaining kinases were produced in HEK-293 cells and subsequently tagged with DNA for qPCR detection. Streptavidin-coated magnetic beads were treated with biotinylated small molecule ligands for 30 minutes at room temperature to generate affinity resins for kinase assays. […] Kds were determined using an 11-point 3-fold compound dilution series with three DMSO control points. […] The kinase concentration in the eluates was measured by qPCR. […]
Binding constants (Kds) were calculated with a standard dose-response curve using the Hill equation: Response=Background+[Signal−Background/1+(Kd^Hill Slope/Dose^Hill Slope)] […]

The subject of assay [3] is colon PDX. Kind of assay: Cell viability, colon PDX (panel statement). In kind it is cell-based. The settings on record: text summary of Table 7; read-out: IC50, growth of colon PDX. On the procedure: PDX-derived cell cultures were obtained from tumors explanted from mice and isolated by mechanical and enzymatic dissociation. […] Cells were harvested and seeded in 96-wells plates at a density of 1.25 to 5×10^3 cells/well for cytotoxicity assays. Cells were incubated 48 h at 37° C. prior to addition of test molecules and vehicle (DMSO, 0.1%) at desired final concentrations. Cell viability was assessed before drugs' addition (To) and 5 days after test molecules addition by measuring ATP cell content using CellTiter-Glo® Luminescent Cell Viability Assay (Promega) according to the manufacturer's instructions. Luciferase activity was measured on a luminometer (PerkinElmer® EnVision™). Each concentration of compounds was tested in triplicate.
Viability was calculated as a percentage of ATP value compared to vehicle treated controls.
For PDX primary cell cultures, the tumour tissue was washed with PBS containing antibiotic-antimycotic and non-tumour tissue and necrotic tumour tissues were separated. The tumour tissue was transferred to a new dish and cut into 1˜2 mm^3 fragments, resuspended in RPMI-1640 medium and centrifuged at 1,200 rpm for 6 min at room temperature. The pelleted material was resuspended with 15 mL of Tumour Cell Digestion Solution and incubated at 37° C. for 1 hour with agitation. […]

T1 sequence (Q8NI60 163-647): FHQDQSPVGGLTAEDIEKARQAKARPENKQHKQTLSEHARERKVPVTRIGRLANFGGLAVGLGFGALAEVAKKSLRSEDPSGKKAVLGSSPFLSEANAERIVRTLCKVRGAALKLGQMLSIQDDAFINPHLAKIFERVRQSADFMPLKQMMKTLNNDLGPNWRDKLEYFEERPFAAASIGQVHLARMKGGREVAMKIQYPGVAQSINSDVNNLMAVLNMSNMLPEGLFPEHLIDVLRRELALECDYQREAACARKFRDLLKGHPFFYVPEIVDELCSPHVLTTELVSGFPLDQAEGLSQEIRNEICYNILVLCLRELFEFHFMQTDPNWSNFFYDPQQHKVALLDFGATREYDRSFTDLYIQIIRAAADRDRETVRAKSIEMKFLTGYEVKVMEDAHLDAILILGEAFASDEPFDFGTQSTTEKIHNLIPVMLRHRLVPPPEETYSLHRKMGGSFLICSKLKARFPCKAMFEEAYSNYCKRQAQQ

In the case of `COc1c(O)ccc2c(=O)c(O)c(-c3ccc(CCCC[P+](c4ccccc4)(c4ccccc4)c4ccccc4)cc3)oc12` [SND190, (4-(4-(3,7-Dihydroxy-8-methoxy-4-oxo-4H1-chromen-2-yl)phenyl)butyl)triphenylphosphonium bromide], the IC50 is 1900 nM in assay [1] and below 20000 nM in assay [3]. For the same molecule, the Kd in assay [2] came out at 100 nM.
